We go through 16 compounds from patent publication US20250186456A1, “PYRIMIDINE-FUSED CYCLIC COMPOUND AND PREPARATION METHOD AND USE THEREOF” (Genfleet Therapeutics (Shanghai) Inc., priority 2021, published 2025).

Read-outs that look alike come from different tables or passages of the source.

Format in all cases: cell-based, human
Test [1] has as its system p-ERK in AGS cells (KRAS G12D mutation). Briefly: Cell p-ERK assay (HTRF, Advance ERK phospho-T202/Y204 kit). Particulars: read-out: AGS p-ERK IC50. A digest of the protocol:
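AGS cells (endogenous KRAS G12D) seeded at ~20000 cells/well overnight, then treated 3 h with 3.16-fold compound dilutions, 0.1% DMSO final. Lysates assayed for phospho-T202/Y204 ERK by HTRF after 4 h antibody incubation; inhibition vs DMSO and blank, IC50 by four-parameter fit.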
For orientation: In TR-FRET formats the signal depends on donor and acceptor labels being close together.

Test [2] relates to AsPC-1 cells (KRAS G12D mutation). Briefly: Cell proliferation inhibition assay, 3D, CellTiter-Glo 3D, AsPC-1. Particulars: AsPC-1 3D sphere model, 5 days incubation. Summed up:
(§1)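 Spheroids (800 AsPC-1 or 400 AGS cells/well; RPMI-1640 or F-12K with 10% FBS) formed overnight, then were dosed on day 2 with a 3.16-fold series at 0.1% DMSO. After 5 days, viability was read by CellTiter-Glo 3D luminescence, and IC50 came from four-parameter fits of inhibition versus DMSO control and medium blank.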
A general note: Cellular ATP, detected with luciferase, serves as a proxy for viable cell number.

For another test, the system named is AGS cells (KRAS G12D). The experiment in a line: Cell proliferation inhibition assay, 3D, CellTiter-Glo 3D, AGS. Particulars: AGS 3D sphere model, 5 days incubation. A digest of the protocol:
as §1

Where [3] appears, read: Homo sapiens, AGS cells, 3 hours incubation with compound, HTRF.
The mark [4] stands for this setting: AGS cells, 3 hours incubation with compound, HTRF.

What is called IC50 is the point on the concentration scale where inhibition reaches its midpoint. In the case of `C#Cc1c(F)ccc2cccc(-c3nc4c5c(nc(OCC6(CN7CCC(=C)C7)CC6)nc5c3F)N3C[C@H]5CC[C@H](N5)[C@H]3[C@H](C)O4)c12` [Example Z698, (5S,5aS,6S,9R)-2-(8-Ethynyl-7-Fluoronaphthalen-1-Yl)-1-Fluoro-5-Methyl-12-((1-((3-Methylenepyrrolidin-1-Yl)Methyl)Cyclopropyl)Methoxy)-5a,6,7,8,9,10-Hexahydro-5H-4-Oxa-3,10a,11,13,14-Pentaaza-6,9-Methanonaphtho[1,8-Ab]Heptalene], the IC50 in test [1] (setting [3]) was 21.7 nM; in test [2] (Homo sapiens, ASPC1, 120 h), 49.3 nM; in the test with AGS cells (KRAS G12D) (Homo sapiens, 120 h), 18.8 nM.

As to `C#Cc1c(F)ccc2cccc(-c3nc4c5c(nc(OCC67CCC8(CC8)N6CC(=C)C7)nc5c3F)N3C[C@H]5CC[C@H](N5)[C@H]3[C@H](C)O4)c12` (stereo partly drawn) [Example Z597], the IC50 was 48.5 nM in test [1] (setting [4]), 98.7 nM in test [2] and 47.9 nM with AGS cells (KRAS G12D).

Turning to `C#Cc1cccc2cc(N)cc(-c3nc4c5c(nc(OCC6(CN7CCOCC7)CC6)nc5c3F)N3C[C@@H](C)NC[C@H]3[C@H](C)O4)c12` [Example Z709, 5-ethynyl-4-((5S,5aS,8R)-1-fluoro-5,8-dimethyl-11-((1-(morpholinomethyl)cyclopropyl)methoxy)-5,5a,6,7,8,9-hexahydro-4-oxa-3,7,9a,10,12-pentaazabenzo[4,5]cyclohepta[1,2,3-de]naphthalen-2-yl) naphthalen-2-amine], the IC50 in test [1] (setting [3]) was found to be 12.2 nM; in test [2] (Homo sapiens, ASPC1, 120 h) it was 117 nM; in the test with AGS cells (KRAS G12D) (Homo sapiens, 120 h) it was 86.8 nM.

In the case of `C#Cc1c(F)ccc2cccc(-c3nc4c5c(nc(OC[C@@]67CCCN6C[C@@H]6C[C@@H]67)nc5c3F)N3C[C@H]5CC[C@H](N5)[C@H]3[C@H](C)O4)c12` (single isomer, unassigned) [Example Z626-2], the IC50 in test [1] (setting [3]) stood at 20.6 nM; in test [2] (Homo sapiens, ASPC1, 120 h) it was 56.6 nM; with AGS cells (KRAS G12D) (Homo sapiens, 120 h), 28.2 nM.

`C#Cc1c(F)ccc2cccc(-c3nc4c5c(nc(OCC67CC(=C)CN6CCC7=C)nc5c3F)N3C[C@H]5CC[C@H](N5)[C@H]3[C@H](C)O4)c12` (stereo partly drawn) [Example Z610, (5S,5aS,6S,9R)-12-((1,6-dimethylenetetrahydro-1H-pyrrolizin-7a (5H)-yl)methoxy)-2-(8-ethynyl-7-fluoronaphthalen-1-yl)-1-fluoro-5-methyl-5a,6,7,8,9,10-hexahydro-5H-4-oxa-3,10a, 11,13,14-pentaaza-6,9-methanonaphtho[1,8-ab]heptalene]: the concentration for half-maximal inhibition (IC50) in test [1] (setting [3]) was determined as 17.2 nM; in test [2] (Homo sapiens, ASPC1, 120 h), 42.3 nM; with AGS cells (KRAS G12D) (Homo sapiens, 120 h), 18.6 nM.

For `C#Cc1cccc2c(F)c(N)cc(-c3nc4c5c(nc(OCC67C[C@@H](F)CN6CCC7=C)nc5c3F)N3C[C@H]5CC[C@H](N5)[C@H]3[C@H](C)O4)c12` (stereo partly drawn) [Example Z728, 5-ethynyl-1-fluoro-4-((5S,5aS,6S,9R)-1-fluoro-12-(((6R)-6-fluoro-1-methylenetetrahydro-1H-pyrrolizin-7a (5H)-yl)methoxy)-5-methyl-5a,6,7,8,9,10-hexahydro-5H-4-oxa-3,10a, 11, 13,14-pentaaza-6,9-methanonaphtho[1,8-ab]heptalene-2-yl) naphthalen-2-amine], the IC50 is 0.95 nM in test [1] (setting [3]); 5.41 nM in test [2] (Homo sapiens, ASPC1, 120 h); 3.75 nM with AGS cells (KRAS G12D) (Homo sapiens, 120 h).

As for `C[C@@H]1Oc2nc(-c3cc(N)cc4ccc(F)c(F)c34)c(F)c3nc(OCC45CCCN4CC(F)(F)C5)nc(c23)N2C[C@H]3CC[C@H](N3)[C@@H]12` (stereo partly drawn) [Example Z720, 4-((5S,5aS,6S,9R)-12-((2,2-difluorotetrahydro-1H-pyrrolizin-7a (5H)-yl)methoxy)-1-fluoro-5-methyl-5a,6,7,8,9,10-hexahydro-5H-4-oxa-3,10a, 11,13,14-pentaaza-6,9-methanonaphtho[1,8-ab]heptalene-2-yl)-5,6-difluoronaphthalen-2-amine], the IC50 was determined as 35.1 nM in test [1] (setting [3]); 33.4 nM in test [2] (Homo sapiens, ASPC1, 120 h); 15.7 nM in the test on AGS cells (KRAS G12D) (Homo sapiens, 120 h).

Take `C#Cc1c(F)ccc2cccc(-c3nc4c5c(nc(OCC67C[C@@H](F)CN6CCC7=C)nc5c3F)N3C[C@H]5CC[C@H](N5)[C@H]3[C@H](C)O4)c12` (stereo partly drawn) [Example Z675, (5S,5aS,6S,9R)-2-(8-ethynyl-7-fluoronaphthalen-1-yl)-1-fluoro-12-(((6R)-6-fluoro-1-methylenetetrahydro-1H-pyrrolizin-7a (5H)-yl)methoxy)-5-methyl-5a,6,7,8,9,10-hexahydro-5H-4-oxa-3,10a,11,13,14-pentaaza-6,9-methanonaphtho[1,8-ab]heptalene]: the IC50 in test [1] (setting [3]) came out at 11.1 nM; in test [2] (Homo sapiens, ASPC1, 120 h), 31.2 nM; in the test with AGS cells (KRAS G12D) (Homo sapiens, 120 h), 31.2 nM.

`C#Cc1cccc2cc(N)cc(-c3nc4c5c(nc(OC[C@@H]6CC(F)(F)CN6C)nc5c3F)N3C[C@H]5CC[C@H](N5)[C@H]3[C@H](C)O4)c12` [Example Z724, 4-((5S,5aS,6S,9R)-12-(((S)-4,4-Difluoro-1-Methylpyrrolidin-2-Yl)Methoxy)-1-Fluoro-5-Methyl-5a,6,7,8,9,10-Hexahydro-5H-4-Oxa-3,10a,11,13,14-Pentaaza-6,9-Methanonaphtho[1,8-Ab]Heptalene-2-Yl)-5-Ethynylnaphthalen-2-Amine]: the IC50 in test [1] (setting [3]) worked out at 45.3 nM; in test [2] (Homo sapiens, ASPC1, 120 h), 196 nM; in the test with AGS cells (KRAS G12D) (Homo sapiens, 120 h), 92 nM.

Consider `C#Cc1c(F)ccc2cccc(-c3nc4c5c(nc(OC[C@@]67CCCN6CC(=C)C7)nc5c3F)N3C[C@H]5CC[C@H](N5)[C@H]3[C@H](C)O4)c12` [Example Z637, (5S,5aS,6S,9R)-2-(8-ethynyl-7-fluoronaphthalen-1-yl)-1-fluoro-5-methyl-12-(((S)-2-methylenetetrahydro-1H-pyrrolizin-7a (5H)-yl)methoxy)-5a,6,7,8,9,10-hexahydro-5H-4-oxa-3,10a,11,13,14-pentaaza-6,9-methanonaphtho[1,8-ab]heptalene], for which the IC50 is 48.8 nM in test [1] (setting [3]); 112 nM in test [2] (Homo sapiens, ASPC1, 120 h); 67.6 nM with AGS cells (KRAS G12D) (Homo sapiens, 120 h).

In the case of `C#Cc1c(F)ccc2cccc(-c3nc4c5c(nc(OCC67CC(=C)CN6CC(=C)C7)nc5c3F)N3C[C@H]5CC[C@H](N5)[C@H]3[C@H](C)O4)c12` [Example Z388, (5S,5aS,6S,9R)-12-((2,6-dimethylenetetrahydro-1H-pyrrolizin-7a (5H)-yl)methoxy)-2-(8-ethynyl-7-fluoronaphthalen-1-yl)-1-fluoro-5-methyl-5a,6,7,8,9,10-hexahydro-5H-4-oxa-3,10a, 11, 13,14-pentaaza-6,9-methanonaphtho[1,8-ab]heptalene], the half-maximal inhibitory concentration (IC50) in test [1] (setting [3]) is 17.9 nM; in test [2] (Homo sapiens, ASPC1, 120 h), 191 nM; with AGS cells (KRAS G12D) (Homo sapiens, 120 h), 53.1 nM.

For `C#Cc1c(F)ccc2cc(O)cc(-c3nc4c5c(nc(OCC6(CO)CC6)nc5c3F)N3C[C@H]5CC[C@H](N5)[C@H]3[C@H](C)O4)c12` [Example Z708, 5-ethynyl-6-fluoro-4-((5S,5aS,6S,9R)-1-fluoro-12-((1-(hydroxymethyl)cyclopropyl)methoxy)-5-methyl-5a,6,7,8,9,10-hexahydro-5H-4-oxa-3,10a, 11,13,14-pentaaza-6,9-methanonaphtho[1,8-ab]heptalene-2-yl) naphthalen-2-ol], the IC50 in test [1] (Homo sapiens, AGS, 3 h) is 38.5 nM; in test [2] (Homo sapiens, ASPC1, 120 h), 941 nM; in the test on AGS cells (KRAS G12D) (Homo sapiens, 120 h), 176 nM.

In the case of `C#Cc1cccc2cc(N)cc(-c3nc4c5c(nc(OCC67C[C@@H](F)CN6CCC7=C)nc5c3F)N3C[C@H]5CC[C@H](N5)[C@H]3[C@H](C)O4)c12` (stereo partly drawn) [Example Z730, 5-ethynyl-4-((5S,5aS,6S,9R)-1-fluoro-12-(((6R)-6-fluoro-1-methylenetetrahydro-1H-pyrrolizin-7a (5H)-yl)methoxy)-S-methyl-5a,6,7,8,9,10-hexahydro-5H-4-oxa-3,10a, 11, 13, 14-pentaaza-6,9-methanonaphtho[1,8-ab]heptalene-2-yl) naphthalen-2-amine], the IC50 was determined as 0.54 nM in test [1] (setting [4]), 3.61 nM in test [2] and 1.66 nM in the test on AGS cells (KRAS G12D).

In the case of `C#Cc1c(F)ccc2cccc(-c3nc4c5c(nc(OC[C@@]67CCCN6C[C@H]6C[C@H]67)nc5c3F)N3C[C@H]5CC[C@H](N5)[C@H]3[C@H](C)O4)c12` (single isomer, unassigned) [Example Z627-2], the IC50 in test [1] (setting [3]) is 59.3 nM; in test [2] (Homo sapiens, ASPC1, 120 h), 287 nM; in the test with AGS cells (KRAS G12D) (Homo sapiens, 120 h) it was 83.4 nM.

On to `C#Cc1cccc2cc(N)cc(-c3nc4c5c(nc(OCC6(CN7CC(F)(F)C7)CC6)nc5c3F)N3C[C@H]5CC[C@H](N5)[C@H]3[C@H](C)O4)c12` [Example Z713, 4-((5S,5aS,6S,9R)-12-((1-((3,3-difluoroazetidin-1-yl)methyl)cyclopropyl)methoxy)-1-fluoro-5-methyl-5a,6,7,8,9,10-hexahydro-5H-4-oxa-3,10a, 11, 13,14-pentaaza-6,9-methanonaphtho[1,8-ab]heptalen-2-yl)-5-ethynylnaphthalen-2-amine], for which the IC50 in test [1] (setting [3]) was determined as 22 nM; in test [2] (Homo sapiens, ASPC1, 120 h), 55.6 nM; in the test with AGS cells (KRAS G12D) (Homo sapiens, 120 h), 73.5 nM.

With `C#Cc1c(F)ccc2cccc(-c3nc4c5c(nc(OCC67CCCN6CCC7=C)nc5c3F)N3C[C@H]5CC[C@H](N5)[C@H]3[C@H](C)O4)c12` (stereo partly drawn) [Example Z600, (5S,5aS,6S,9R)-2-(8-ethynyl-7-fluoronaphthalen-1-yl)-1-fluoro-5-methyl-12-((1-methylenetetrahydro-1H-pyrrolizin-7a (5H)-yl)methoxy)-5a,6,7,8,9,10-hexahydro-5H-4-oxa-3,10a, 11, 13, 14-pentaaza-6,9-methanonaphtho[1,8-ab]heptalene], the IC50 was 18.3 nM in test [1] (setting [3]); 64.8 nM in test [2] (Homo sapiens, ASPC1, 120 h); 15.3 nM with AGS cells (KRAS G12D) (Homo sapiens, 120 h).
